≈ marks a conversion by molar mass, not a printed value. Where two headings read alike, the source gives them in different places.
Assays:
[1] = design: method as in PMID 27467575; details: pH 7.4; cited from earlier work
C. parvum Iowa isolate [2] = test: IFN-γ knockout mouse model of acute cryptosporidiosis; format: in vivo, C57BL/6 IFN-γ−/− mice; details: 30 mg/kg twice daily on days 4, 5, 6 postinfection
Experimental: All interferon gamma (IFN-γ) knockout mouse studies were performed in compliance with animal care guidelines and were approved by the Explora BioLabs (San Diego, CA) Institutional Animal Care and Use Committee. Four-week-old female C57BL/6 IFN-γ^−/− mice with normal flora were purchased from The Jackson Laboratory and were acclimated for 3 days prior to infection by oral gavage with 10^6 C. parvum Iowa isolate oocysts (Sterling Parasitology Laboratory, University of Arizona) suspended in sterile distilled water. At various times postinfection, mice were treated with the compound vehicle alone, clofazimine (used as a positive control), or MMV665917. As described previously, fecal parasite shedding was quantified at various times postinfection by isolating oocysts using a sucrose gradient centrifugation method ([39]), followed by staining for immunofluorescence microscopy using a fluorescein isothiocyanate-conjugated mouse anti-Cryptosporidium antibody (0.25 μg per sample) and analysis with a Guava easyCyte flow cytometer and CytoSoft data acquisition and analysis software (version 5.3; Guava Technologies, Inc.). Oocyst counts per milliliter of sample were exported to Excel (Microsoft Corp.) and were normalized to counts per milligram of feces. Final data analysis and graphing were carried out using GraphPad Prism software (version 6.01).

[3] = design: method as in PMID 27467575; details: human; cited from earlier work
C. parvum Iowa isolate [4] = test: NOD SCID gamma (NSG) mouse model of chronic cryptosporidiosis, fecal qPCR; format: in vivo, NOD SCID gamma mice
Experimental: All NOD SCID gamma mouse studies were performed in compliance with animal care guidelines and were approved by the University of Vermont Institutional Animal Care and Use Committee. NOD SCID gamma mice with normal flora (NOD.Cg-Prkdc^scid Il2rg^tm1Wjl/SzJ) ([38]) were purchased from The Jackson Laboratory (Bar Harbor, ME, USA) and were housed for at least a week for acclimatization. At the age of 4 to 5 weeks, mice were infected with 10^5 C. parvum Iowa isolate oocysts. Fecal oocyst shedding is detected 6 days after infection using a quantitative PCR (qPCR assay), so treatment was started on day 7 after infection. Mice (4 per experimental group) were treated either orally (p.o.) with MMV665917 at 30 or 60 mg/kg BID, intraperitoneally (i.p.) with MMV665917 at 60 mg/kg BID, or p.o. with 1,000 mg/kg paromomycin BID. MMV665917 was suspended in DMSO, sonicated three times, for 30 s each time, to obtain a fine suspension, aliquoted, and stored at −80°C for <10 days. On the day of treatment, aliquots of MMV665917 diluted in DMSO were thawed, mixed well using a vortexer, diluted with 1% HPMC, sonicated as before (three times for 30 s each time), mixed well, and given to mice either p.o. or by i.p. injection. A final concentration of 5% DMSO was used in 100 μl of 1% HPMC per dose. For the additional Malaria Box compounds and compound variants tested, the doses were prepared in the same way, and the specific dosages tested are given in Table S3 in the supplemental material. Mice were treated for either 4 or 7 days, allowed to recover for a week, and then sacrificed. Oocyst shedding in feces was monitored throughout by qPCR, including time points while on treatment and while monitoring for relapsed infection following completion of treatment in Fig. 2A.

zebrafish = tested on: zebrafish; design: method as in PMID 27467575; details: cited from earlier work
[5] = tested on: five mammalian cell lines; test: Toxicity profiling in mammalian cell lines; details: based on previously reported toxicity profiling
[6] = tested on: cytochrome P450 (CYP) isoforms (1A2, 2C9, 2C19, 2D6, 3A4-M, and 3A4-T); design: method as in PMID 27467575; details: at 10 μM; cited from earlier work
[7] = design: method as in PMID 27467575; details: mouse; cited from earlier work
C. parvum Iowa isolate [8] = test: Immunofluorescence assay for C. parvum growth inhibition in HCT-8 cells; format: cell-based, Cryptosporidium parvum; details: Cryptosporidium parvum, inside HCT-8 cells, 48 h incubation
Experimental: Inhibition of C. parvum growth was measured as described previously ([20]). Oocysts were excysted by treatment with 10 mM hydrochloric acid (10 min at 37°C), followed by exposure to 2 mM sodium taurocholate (Sigma-Aldrich) in PBS for 10 min at 16°C. Excysted oocysts were then added to >95% confluent HCT-8 cell monolayers in 384-well plates at a concentration of 5,500 Iowa isolate oocysts per well. For C. parvum field isolates, the inoculum required to yield an infection level similar to that produced by 5,500 Iowa isolate oocysts per well was determined and was used for subsequent assays of parasite inhibition. Compounds were added just before or 3 h after infection, and assay plates were incubated for 48 h postinfection at 37°C under 5% CO2. Wells were then washed three times with PBS containing 111 mM D-galactose, fixed with 4% paraformaldehyde in PBS for 15 min at room temperature, permeabilized with 0.25% Triton X-100 for 10 min at 37°C, washed three times with PBS with 0.1% Tween 20, and blocked with 4% bovine serum albumin (BSA) in PBS for 2 h at 37°C or 4°C overnight. Parasitophorous vacuoles were stained with 1.33 μg/ml of fluorescein-labeled Vicia villosa lectin (Vector Laboratories) diluted in 1% BSA in PBS with 0.1% Tween 20 for 1 h at 37°C, followed by the addition of Hoechst 33258 (AnaSpec) at a final concentration of 0.09 mM diluted in water for another 15 min at 37°C. Wells were then washed five times with PBS containing 0.1% Tween 20. A Nikon Eclipse TE2000 epifluorescence microscope with an automated stage was programmed using NIS-Elements Advanced Research software (Nikon, USA) to focus on the center of each well and take a 3-by-3 composite image using an EXi Blue fluorescence microscopy camera (QImaging, Canada) with a 20× objective (numerical aperture, 0.45). Nucleus and parasite images were exported separately as .tif files and were analyzed using macros developed on the ImageJ platform (National Institutes of Health) ([20]). The only modification from the published macro used to count parasites was that the lower size threshold for parasites was decreased from 16.5 to 4 pixels (1 pixel = 0.65 μm). Graphs were plotted, and half-maximal effective concentration (EC50) and 90% effective concentration (EC90) values were calculated using GraphPad Prism software, version 6.01. For every C. parvum field isolate experiment, a dose-response experiment against the C. parvum Iowa isolate was performed simultaneously as a reference.

O=C(Nc1ccc(Cl)cc1)N1CCN(c2ccc3nncn3n2)CC1 [MMV665917, Clc1ccc(NC(=O)N2CCN(CC2)c3ccc4nncn4n3)cc1]
kinetic solubility [1]: 18 µM (≈ 6.44 µg/mL) | efficacy in IFN-γ KO mouse model of acute infection (C. parvum Iowa isolate [2]): highly efficacious | plasma protein binding [3]: 88.8% | reduction of oocyst shedding (C. parvum Iowa isolate [4]; 30 mg/kg orally twice daily, 7 days, from day 7 after infection): > 90% | efficacy, oral versus intraperitoneal dosing (C. parvum Iowa isolate [4]; 60 mg/kg BID p.o. or i.p., Fig. 4A): equally efficacious regardless of the route of administration | relapse after cessation of treatment (C. parvum Iowa isolate [4]; MMV665917 30 mg/kg orally twice daily, 7 days): relapsed | outcome after cessation of treatment (C. parvum Iowa isolate [4]; MMV665917 60 mg/kg orally twice daily, 7 days): apparently cured | NSG efficacy (C. parvum Iowa isolate [4]; dose 30 mg/kg, interval 12 h, duration 4 days): efficacious | toxicity to zebrafish (zebrafish): not toxic | selectivity index (SI) for C. parvum over five mammalian cell lines [5]: > 20 | inhibition of six CYP isoforms [6]: low inhibition | plasma protein binding [7]: 83.3% | EC50 (C. parvum Iowa isolate [8]; Fig. 1, read-out: EC50, anti-C. parvum dose response): 2.1 µM | EC90 (C. parvum Iowa isolate [8]; Fig. 1B, read-out: EC90, anti-C. parvum dose response): 5.1 µM

— article PMC5913971, “A Novel Piperazine-Based Drug Lead for Cryptosporidiosis from the Medicines for Malaria Venture Open-Access Malaria Box” (Antimicrobial Agents and Chemotherapy, 2018)
